Results as given in article PMC10893631, “Receptor-based pharmacophore modeling, molecular docking, synthesis and biological evaluation of novel VEGFR-2, FGFR-1, and BRAF multi-kinase inhibitors” (BMC Chemistry, 2024).

Columns and labels:
Experiment in all cases: NCI SRB growth inhibition (single dose 10 µM / five-dose)
Type in all cases: cell-based, human
A498 = conditions: Homo sapiens; for inhibition at 10 µM: A498 (Renal cancer), read-out: GI%; for GI50: A498, Renal cancer, five-dose
How it was run: (§1)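 Single-dose screen output reported as mean graph; selected compounds then run at five concentrations. Cells pre-grown 24 h before drug addition, fixed with TCA, and quantified by SRB dye binding.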

ACHN = conditions: Homo sapiens; for inhibition at 10 µM: ACHN (Renal cancer), read-out: GI%; for GI50: ACHN, Renal cancer, five-dose
How it was run: as §1

COLO 205 = conditions: Homo sapiens; for inhibition at 10 µM: COLO 205 (Colon cancer), read-out: GI%; for GI50: COLO 205, Colon cancer, five-dose
How it was run: as §1

HCC-2998 = conditions: Homo sapiens; for inhibition at 10 µM: HCC-2998 (Colon cancer), read-out: GI%; for GI50: HCC-2998, Colon cancer, five-dose
How it was run: as §1

HCT-15 = conditions: Homo sapiens; for inhibition at 10 µM: HCT-15 (Colon cancer), read-out: GI%; for GI50: HCT-15, Colon cancer, five-dose
How it was run: as §1

HOP-62 = conditions: Homo sapiens; for inhibition at 10 µM: HOP-62 (Non-small cell lung cancer), read-out: GI%; for GI50: HOP-62, Non-small cell lung cancer, five-dose
How it was run: as §1

HOP-92 = conditions: Homo sapiens; HOP-92 (Non-small cell lung cancer), 10 µM; read-out: GI%
How it was run: as §1

HT29 = conditions: Homo sapiens, HT-29; for inhibition at 10 µM: HT29 (Colon cancer), read-out: GI%; for GI50: HT29, Colon cancer, five-dose
How it was run: as §1

IGROV1 = conditions: Homo sapiens, IGROV-1; for inhibition at 10 µM: IGROV1 (Ovarian cancer), read-out: GI%; for GI50: IGROV1, Ovarian cancer, five-dose
How it was run: as §1

LOX IMVI = conditions: Homo sapiens; for inhibition at 10 µM: LOX IMVI (Melanoma), read-out: GI%; for GI50: LOX IMVI, Melanoma, five-dose
How it was run: as §1

MALME-3 M = conditions: Homo sapiens; for inhibition at 10 µM: MALME-3 M (Melanoma), read-out: GI%; for GI50: MALME-3 M, Melanoma, five-dose
How it was run: as §1

MOLT-4 = conditions: Homo sapiens; for inhibition at 10 µM: MOLT-4 (Leukemia), read-out: GI%; for GI50: MOLT-4, Leukemia, five-dose
How it was run: as §1

NCI-H226 = conditions: Homo sapiens; for inhibition at 10 µM: NCI-H226 (Non-small cell lung cancer), read-out: GI%; for GI50: NCI-H226, Non-small cell lung cancer, five-dose
How it was run: as §1

NCI-H23 = conditions: Homo sapiens; for inhibition at 10 µM: NCI-H23 (Non-small cell lung cancer), read-out: GI%; for GI50: NCI-H23, Non-small cell lung cancer, five-dose
How it was run: as §1

NCI-H322M = conditions: Homo sapiens; for inhibition at 10 µM: NCI-H322M (Non-small cell lung cancer), read-out: GI%; for GI50: NCI-H322M, Non-small cell lung cancer, five-dose
How it was run: as §1

NCI/ADR-RES = conditions: Homo sapiens; for inhibition at 10 µM: NCI/ADR-RES (Ovarian cancer), read-out: GI%; for GI50: NCI/ADR-RES, Ovarian cancer, five-dose
How it was run: as §1

OVCAR-3 = conditions: Homo sapiens; for inhibition at 10 µM: OVCAR-3 (Ovarian cancer), read-out: GI%; for GI50: OVCAR-3, Ovarian cancer, five-dose
How it was run: as §1

OVCAR-4 = conditions: Homo sapiens; for inhibition at 10 µM: OVCAR-4 (Ovarian cancer), read-out: GI%; for GI50: OVCAR-4, Ovarian cancer, five-dose
How it was run: as §1

OVCAR-5 = conditions: Homo sapiens; for inhibition at 10 µM: OVCAR-5 (Ovarian cancer), read-out: GI%; for GI50: OVCAR-5, Ovarian cancer, five-dose
How it was run: as §1

RPMI-8226 = conditions: Homo sapiens; for inhibition at 10 µM: RPMI-8226 (Leukemia), read-out: GI%; for GI50: RPMI-8226, Leukemia, five-dose
How it was run: as §1

SK-MEL-2 = conditions: Homo sapiens; for inhibition at 10 µM: SK-MEL-2 (Melanoma), read-out: GI%; for GI50: SK-MEL-2, Melanoma, five-dose
How it was run: as §1

SK-MEL-5 = conditions: Homo sapiens; for inhibition at 10 µM: SK-MEL-5 (Melanoma), read-out: GI%; for GI50: SK-MEL-5, Melanoma, five-dose
How it was run: as §1

SNB-19 = conditions: Homo sapiens; for inhibition at 10 µM: SNB-19 (CNS cancer), read-out: GI%; for GI50: SNB-19, CNS cancer, five-dose
How it was run: as §1

SNB-75 = conditions: Homo sapiens; for inhibition at 10 µM: SNB-75 (CNS cancer), read-out: GI%; for GI50: SNB-75, CNS cancer, five-dose
How it was run: as §1

T-47D = conditions: Homo sapiens, T47D; for inhibition at 10 µM: T-47D (Breast cancer), read-out: GI%; for GI50: T-47D, Breast cancer, five-dose
How it was run: as §1

UACC-257 = conditions: Homo sapiens; for inhibition at 10 µM: UACC-257 (Melanoma), read-out: GI%; for GI50: UACC-257, Melanoma, five-dose
How it was run: as §1

COc1ccc(-c2nc3cc(C(=O)NN=Cc4cccc(OC)c4)ccc3[nH]2)cc1 [8j, N'-(3-Methoxybenzylidene)-2-(4-methoxyphenyl)-1H-benzo[d]imidazole-5-carbohydrazide]
inhibition at 10 µM (A498): < 5%
GI50 (A498): 21.5 µM
inhibition at 10 µM (ACHN): > 100%
GI50 (ACHN): 4.25 µM
inhibition at 10 µM (COLO 205): > 100%
GI50 (COLO 205): 4.3 µM
inhibition at 10 µM (HCC-2998): 88.5%
GI50 (HCC-2998): 3.52 µM
inhibition at 10 µM (HCT-15): 79.2%
GI50 (HCT-15): 3.92 µM
inhibition at 10 µM (HOP-62): > 100%
GI50 (HOP-62): 2.7 µM
inhibition at 10 µM (HOP-92): > 100%
inhibition at 10 µM (HT29): > 100%
GI50 (HT29): 2.8 µM
inhibition at 10 µM (IGROV1): > 100%
GI50 (IGROV1): 3.49 µM
inhibition at 10 µM (LOX IMVI): > 100%
GI50 (LOX IMVI): 1.98 µM
inhibition at 10 µM (MALME-3 M): > 100%
GI50 (MALME-3 M): 2.45 µM
inhibition at 10 µM (MOLT-4): 59.4%
GI50 (MOLT-4): 22.6 µM
inhibition at 10 µM (NCI-H226): 98.3%
GI50 (NCI-H226): 2.13 µM
inhibition at 10 µM (NCI-H23): > 100%
GI50 (NCI-H23): 2.95 µM
inhibition at 10 µM (NCI-H322M): > 100%
GI50 (NCI-H322M): 3.03 µM
inhibition at 10 µM (NCI/ADR-RES): 32%
GI50 (NCI/ADR-RES): 6.35 µM
inhibition at 10 µM (OVCAR-3): > 100%
GI50 (OVCAR-3): 2.05 µM
inhibition at 10 µM (OVCAR-4): > 100%
GI50 (OVCAR-4): 2.01 µM
inhibition at 10 µM (OVCAR-5): 91.2%
GI50 (OVCAR-5): 4.69 µM
inhibition at 10 µM (RPMI-8226): > 100%
GI50 (RPMI-8226): 4.14 µM
inhibition at 10 µM (SK-MEL-2): 81%
GI50 (SK-MEL-2): 10.6 µM
inhibition at 10 µM (SK-MEL-5): > 100%
GI50 (SK-MEL-5): 3.45 µM
inhibition at 10 µM (SNB-19): > 100%
GI50 (SNB-19): 3.18 µM
inhibition at 10 µM (SNB-75): > 100%
GI50 (SNB-75): 1.78 µM
inhibition at 10 µM (T-47D): > 100%
GI50 (T-47D): 2.62 µM
inhibition at 10 µM (UACC-257): 57.7%
GI50 (UACC-257): 11 µM

COc1ccc(-c2nc3cc(C(=O)NN=Cc4cccc(OC)c4O)ccc3[nH]2)cc1 [8k, N'-(2-Hydroxy-3-methoxybenzylidene)-2-(4-methoxyphenyl)-1H-benzo[d]imidazole-5-carbohydrazide]
inhibition at 10 µM (A498): < 5%
GI50 (A498): > 100 µM
inhibition at 10 µM (ACHN): 87.7%
GI50 (ACHN): 4.19 µM
inhibition at 10 µM (COLO 205): > 100%
GI50 (COLO 205): 3.94 µM
inhibition at 10 µM (HCC-2998): > 100%
GI50 (HCC-2998): 2.33 µM
inhibition at 10 µM (HCT-15): 78.1%
GI50 (HCT-15): 3.35 µM
inhibition at 10 µM (HOP-62): > 100%
GI50 (HOP-62): 3.11 µM
inhibition at 10 µM (HOP-92): 70.4%
inhibition at 10 µM (HT29): > 100%
GI50 (HT29): 3.67 µM
inhibition at 10 µM (IGROV1): 84.8%
GI50 (IGROV1): 3.52 µM
inhibition at 10 µM (LOX IMVI): > 100%
GI50 (LOX IMVI): 2.34 µM
inhibition at 10 µM (MALME-3 M): > 100%
GI50 (MALME-3 M): 1.09 µM
inhibition at 10 µM (MOLT-4): > 100%
GI50 (MOLT-4): 3.8 µM
inhibition at 10 µM (NCI-H226): 82.2%
GI50 (NCI-H226): 3.14 µM
inhibition at 10 µM (NCI-H23): > 100%
GI50 (NCI-H23): 2.14 µM
inhibition at 10 µM (NCI-H322M): 95.9%
GI50 (NCI-H322M): 3.04 µM
inhibition at 10 µM (NCI/ADR-RES): 28.1%
GI50 (NCI/ADR-RES): > 100 µM
inhibition at 10 µM (OVCAR-3): > 100%
GI50 (OVCAR-3): 1.25 µM
inhibition at 10 µM (OVCAR-4): 86%
GI50 (OVCAR-4): 3.26 µM
inhibition at 10 µM (OVCAR-5): 69.5%
GI50 (OVCAR-5): 7.72 µM
inhibition at 10 µM (RPMI-8226): > 100%
GI50 (RPMI-8226): 2.8 µM
inhibition at 10 µM (SK-MEL-2): 39.1%
GI50 (SK-MEL-2): 6.3 µM
inhibition at 10 µM (SK-MEL-5): > 100%
GI50 (SK-MEL-5): 2.86 µM
inhibition at 10 µM (SNB-19): > 100%
GI50 (SNB-19): 3.33 µM
inhibition at 10 µM (SNB-75): 91%
GI50 (SNB-75): 3.05 µM
inhibition at 10 µM (T-47D): 95%
GI50 (T-47D): 3.48 µM
inhibition at 10 µM (UACC-257): > 100%
GI50 (UACC-257): 3.43 µM
